Data as given in US9925398B2, “Angiogenic peptide” (NOVACELL TECHNOLOGY INC., priority 2008, dated 2018).

Tests used:
HUVECs [1] = experiment: Tube formation assay on Matrigel; assay type: cell-based, human; settings: 24 h
Protocol: As described previously in M. S. Lee, et al., J Immunol 177 (2006), pp. 5585-5594, HUVECs were seeded on a layer of previously polymerized Matrigel with SFKLRY-NH2 (SEQ ID NO: 2), its scrambled sequence FYSRLK-NH2, S1P or VEGF in the presence or absence of VEGF neutralizing antibody. After 24 h of incubation, changes in cell morphology were observed through a phase-contrast microscope and photographed. To measure the formation of the capillary network, the total tube length per field was measured at 40× magnification with the scale. Three different fields were analyzed per well.
FIGS. 2A-2C show SFKLRY-NH2 (SEQ ID NO: 2) induces proliferation, migration, and tube formation in HUVECs. (A) The effect of SFKLRY-NH2 on proliferation of HUVECs. […] After 48 h of incubation, the activity of DNA synthesis was counted with a liquid scintillation counter. […] After wounding, HUVECs were incubated with indicated concentration of SFKLRY-NH2 (SEQ ID NO: 2) (0.1-10 μM) for 16 h and then migrated HUVECs beyond the reference line were counted. […] After incubation for 24 h, the tubular-like structures were photographed and the length of tube formation was measured. […]
FIGS. 6A-6B show anti-VEGF antibody suppress SFKLRY-NH2 (SEQ ID NO: 2)-induced tube formation in HUVECs. […] After incubation for 24 h, the tubular-like structures were photographed and the length of tube formation was measured. […]

HUVECs [2] = experiment: [Ca2+]i increase in HUVECs; assay type: cell-based, human; settings: 10 μM
Protocol: Cells were incubated with 4 μM Fura-2 AM and 250 μM sulfinpyrazone in serum-free DMEM medium at 37° C. for 30 min with continuous stirring. The cells were then washed with Locke's solution (M. Faehling, et al., FASEB J 16 (2002), pp. 1805-1807) and diluted to 2×10^6 cells/mL. 50 μL aliquots of cell suspension were added to each well of a 96-well plate, and the change in fluorescence ratio was determined at dual excitation wavelengths of 340 and 380 nm and emission wavelength of 500 nm following addition of peptides. Plates were read immediately following the addition of peptide pools, resulting in a time delay of approximately 5 s between peptide addition and detection by the FLEXstation (Molecular Devices). Negative and positive controls were run simultaneously with test samples to ensure that all samples were subjected to identical conditions. The calibration of the fluorescence ratio in terms of [Ca^2+]i was performed according to Grynkiewicz et al. J Biol Chem 260 (1985), pp. 3440-3450.
To verify that SFKLRY-NH2 (SEQ ID NO: 2) induces [Ca^2+]i increase in human endothelial cells, intracellular Ca^2+ mobilization in primary cultured human umbilical vein endothelial cells (HUVECs) were measured. Treatment with SFKLRY-NH2 (SEQ ID NO: 2) induced [Ca^2+]i increase in HUVECs with the half-maximal effect at 1.4±0.15 μM. […]

Rat aortic explants = experiment: Aortic ring assay (vessel sprouting ex vivo); assay type: cell-based; settings: 1 μM; 7 days
Protocol: The method developed by Nicosia and Ottinetti in In Vitro Cell Dev Biol 26 (1990), pp. 119-128 was used with some modifications. Aortas were harvested from 6-week-old Sprague-Dawley rats. After removing the surrounding fibro-adipose tissues, the rings were immersed in Matrigel in wells within culture dishes. The aortic rings were cultured (5% CO2, 37° C.) in serum-free M199 containing SFKLRY-NH2 (SEQ ID NO: 2), S1P, FYSRLK-NH2, or VEGF in the presence or absence of PTX or U73122. On day 7, sprouting from aortic explants was measured.
To address whether SFKLRY-NH2 (SEQ ID NO: 2) plays a role in sprouting of vascular endothelial cells ex vivo, aortic rings were analyzed in the presence of various stimuli including 1 μM SFKLRY-NH2 (SEQ ID NO: 2), 10 ng/mL VEGF, 10 nM S1P, and 10% FBS. […] Rat aortic explants in Matrigel were incubated with M-199 harboring SFKLRY-NH2 (SEQ ID NO: 2) (1 μM), FYSRLK-NH2 (1 μM), S1P (10 nM), VEGF (10 ng/mL), SFKLRY-NH2 (SEQ ID NO: 2) (1 μM) with U73122 (10 μM) or PTX (50 ng/mL), or 10% FBS and photographed after incubation for 7 days. Three independent experiments were then conducted, each in duplicate.

Compound | Tube-forming activity (length of tube formation) (HUVECs [1]; 100 nM) | Ca2+ mobilization (HUVECs [2]) | Tube-forming activity (length of tube formation) (HUVECs [1]; 10 μM) | vessel sprouting activity (outgrowth of endothelial cells) (Rat aortic explants)
CCCCCCCCCCCCC/C=C/[C@@H](O)[C@@H](N)COP(=O)(O)O [S1P, sphingosine-1-phosphate] | 19.69±0.32 |  |  | 
FYSRLK-NH2 |  | did not trigger Ca^2+ mobilization | 8.96±1.14 | negligible activity
